From patent US20220125837A1, “METHODS FOR CONTROLLED ELIMINATION OF THERAPEUTIC CELLS” (Bellicum Pharmaceuticals, Inc., priority 2014, published 2022)

What was measured:
[1] = tested on: iFas-transduced CTLs; test: CID-induced elimination of GFP+ iFas-transduced EBV-CTLs; assay type: cell-based, human; conditions: GFPhigh, 1:1 with nontransduced, 10 nM CID, day 7
Text: Caspase-9 was selected as an inducible proapoptotic molecule for clinical use rather than previously presented iFas and iFADD, because Caspase-9 acts relatively late in apoptosis signaling and therefore is expected to be less susceptible to inhibition by apoptosis inhibitors. Thus, suicide function should be preserved not only in malignant, transformed T-cell lines that express antiapoptotic molecules, but also in subpopulations of normal T cells that express elevated antiapoptotic molecules as part of the process to ensure long-term preservation of memory cells. To further investigate the hypothesis, the function of iCasp9M and iFas was first compared in EBV-CTLs. To eliminate any potential vector based difference, inducible Fas also was expressed in the MSCV.IRES.GFP vector, like iCasp9. […]
Elimination of GFP^+ cells after administration of 10 nM CID was more rapid and more efficient in iCasp9M than in iFas-transduced CTLs (99.2%+/−0.14% of iCasp9M-transduced cells compared with 89.3%+/−4.9% of iFas-transduced cells at day 7 after CID; P<0.05). On the day of LCL stimulation, 10 nM CID was administered, and GFP was measured at the time points indicated to determine the response to CID. […]

[2] = tested on: iCasp9-ΔCD19-transduced MSCs; test: In vivo killing of iCasp9 MSCs in SCID mice (luminescence, qPCR)
Method: All mouse experiments were performed in accordance with the Baylor College of Medicine animal husbandry guidelines. To assess the persistence of modified MSCs in vivo, a SCID mouse model was used in conjunction with an in vivo imaging system. MSCs were transduced with retroviruses coding for the enhanced green fluorescent protein-firefly luciferase (eGFP-FFLuc) gene alone or together with the iCasp9-ΔCD19 gene. Cells were sorted for eGFP positivity by fluorescence activated cell sorting using a MoFlo flow cytometer (Beckman Coulter, Fullerton, Calif.). Doubly transduced cells were also stained with PE-conjugated anti-CD19 and sorted for PE-positivity. SCID mice (8-10 weeks old) were injected subcutaneously with 5×10^5 MSCs with and without iCasp9-ΔCD19 in opposite flanks. […] For in vivo imaging of MSCs expressing eGFP-FFLuc, mice were injected intraperitoneally with D-luciferin (150 mg/kg) and analyzed using the Xenogen-IVIS Imaging System. Total luminescence (a measurement proportional to the total labeled MSCs deposited) at each time point was calculated by automatically defining regions-of-interest (ROIs) over the MSC implantation sites. These ROIs included all areas with luminescence signals at least 5% above background. Total photon counts were integrated for each ROI and an average value calculated. […]

For CC[C@H](C(=O)N1CCCC[C@H]1C(=O)O[C@H](CCc1ccc(OC)c(OC)c1)c1cccc(OCC(=O)NCC(CNC(=O)COc2cccc([C@@H](CCc3ccc(OC)c(OC)c3)OC(=O)[C@@H]3CCCCN3C(=O)[C@@H](CC)c3cc(OC)c(OC)c(OC)c3)c2)CN(C)C)c1)c1cc(OC)c(OC)c(OC)c1 [AP20187], which “Elimination of GFP+ cells” value [1] is on record?
The value was 89.3%+/−4.9%.

And the “surviving iCasp9-positive cells, % of the original population” value ([2]; after one week)?
The value was 0.7%.

And the “killing / depletion of iCasp9-positive cells in vivo” value ([2]; two injections of 50 μg of CID 24 hours apart, qPCR)?
The value was over 99%.
